The target in this assay is Protein-cysteine N-palmitoyltransferase HHAT (Homo sapiens) (UniProt Q5VTY9). Briefly: Inhibition of HA/FLAG/His-tagged Hhat (unknown origin) expressed in human 293T cells at 25 uM using biotinylated Shh peptide as substrate pretreated for 20 mins followed by [125I]-iodo-palitoylCoA/substrate addition measured after 1 hr by gamma counting method relative to control.

A value given as a limit tells only on which side of the number the result lay.

In general, inhibition refers to the drop in the measured response relative to a control, in per cent.

Protein-cysteine N-palmitoyltransferase HHAT (Homo sapiens), sequence (Q5VTY9 whole entry): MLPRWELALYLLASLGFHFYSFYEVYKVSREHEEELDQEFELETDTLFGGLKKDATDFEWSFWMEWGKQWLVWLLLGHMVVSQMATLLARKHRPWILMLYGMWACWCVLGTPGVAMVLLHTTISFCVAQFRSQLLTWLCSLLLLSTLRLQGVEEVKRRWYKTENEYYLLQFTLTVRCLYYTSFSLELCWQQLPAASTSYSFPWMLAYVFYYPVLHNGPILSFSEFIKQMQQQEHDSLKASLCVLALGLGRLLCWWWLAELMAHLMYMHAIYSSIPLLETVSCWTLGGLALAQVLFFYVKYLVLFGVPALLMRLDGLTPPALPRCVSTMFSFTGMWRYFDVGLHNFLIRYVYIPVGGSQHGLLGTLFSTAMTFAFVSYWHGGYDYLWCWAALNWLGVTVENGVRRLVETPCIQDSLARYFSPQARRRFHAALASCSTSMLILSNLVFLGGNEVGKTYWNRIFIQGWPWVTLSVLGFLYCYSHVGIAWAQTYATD

In the case of `CCC(C)CNCC(=O)N1CCc2sccc2C1c1cccc(C)c1` (configuration not stated), the inhibition is more than 75%.
Then `CCC(C)CNCC(=O)N1CCc2sccc2C1c1cccc(C)n1` (configuration not stated), with more than 75%.
